Where no end group is shown, it is not given here. [ ]: non-standard residue; d: D form. The star is where a group is joined. Biotin = O=C1N[C@H]2[C@H](CS[C@H]2CCCCC(=O)*)N1; pT = C[C@@H](OP(=O)(O)O)[C@H](N)C(=O)O
T1: Fbxo48-V5 (Homo sapiens, UniProt Q5FWF7)
T1 sequence (Q5FWF7 1-155): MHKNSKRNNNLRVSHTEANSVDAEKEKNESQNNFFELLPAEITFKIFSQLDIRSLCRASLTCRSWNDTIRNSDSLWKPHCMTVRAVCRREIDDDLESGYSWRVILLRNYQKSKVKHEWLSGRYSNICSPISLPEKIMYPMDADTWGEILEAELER

T2: Purified human Fbxo48 protein (recombinant, HIS-tagged) (human, UniProt Q5FWF7 1-155)
T2 sequence: T1 sequence (Q5FWF7 1-155)


Tests used:
[1] = target: T1, Fbxo48-V5; test: cellular thermal shift assay; format: cell-based; settings: 3 μM BC1618, 30 min, HEK293/293T cells; Fbxo30-V5 as negative control
[2] = target: T2, Purified human Fbxo48 protein …; test: pull-down

Molecule	cellular thermal shift assay (CETSA), immunoblot [1]	binding result [2]
OC(COc1ccc(C(F)(F)F)cc1)CN(Cc1ccccc1)Cc1ccccc1 (centres unmarked) [compound 2, BC1618]	BC1618 directly interacted with Fbxo48 but not Fbxo30 (negative control)	–
Biotin-DGEFLR[pT]SCGSPN [phospho-Ampkα peptide (Biotin-DGEFLRT(p)SCGSPN)]	–	binds
